Tests used:
barnyardgrass [1] = test: Test B flooded paddy test; type: in vivo, Echinochloa crus-galli; details: Flood, 250 g ai/ha; 0 to 100 scale where 0 is no effect and 100 is complete control
Procedure, shortened: (§1)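 Post-emergence paddy-water application at the 2-leaf stage, with 3 cm flood kept for the whole test. Response was judged visually relative to controls after 13 to 15 greenhouse days, 0 indicating no effect and 100 complete control.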

large (Lg) crabgrass [2] = test: Test A preemergence; type: in vivo, Digitaria sanguinalis
Procedure, shortened: (§2)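 Pre- and postemergence greenhouse screen. Soil: loam + sand. Spray carrier: solvent mixture, non-phytotoxic, with surfactant. Post timing at 1–2 leaves, height 2–10 cm. Readout: visual injury on a 0–100 scale roughly 10 days after application, untreated plants as reference.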

corn [3] = test: Test A preemergence; type: in vivo, Zea mays
Procedure, shortened: as §2

wheat [4] = test: Test A postemergence; type: in vivo, Triticum aestivum
Procedure, shortened: as §2

morningglory [5] = test: Test A postemergence; type: in vivo, Ipomoea spp.
Procedure, shortened: as §2

barnyardgrass [6] = test: Test A preemergence; type: in vivo, Echinochloa crus-galli
Procedure, shortened: as §2

giant foxtail [7] = test: Test A preemergence; type: in vivo, Setaria faberii
Procedure, shortened: as §2

pigweed [8] = test: Test A postemergence; type: in vivo, Amaranthus retroflexus
Procedure, shortened: as §2

giant foxtail [9] = test: Test A postemergence; type: in vivo, Setaria faberii
Procedure, shortened: as §2

velvetleaf [10] = test: Test A preemergence; type: in vivo, Abutilon theophrasti
Procedure, shortened: as §2

sedge, umbrella = test: Test B flooded paddy test; type: in vivo, Cyperus difformis; details: Flood, 250 g ai/ha; 0 to 100 scale where 0 is no effect and 100 is complete control
Procedure, shortened: as §1

pigweed [11] = test: Test A preemergence; type: in vivo, Amaranthus retroflexus
Procedure, shortened: as §2

velvetleaf [12] = test: Test A postemergence; type: in vivo, Abutilon theophrasti
Procedure, shortened: as §2

large (Lg) crabgrass [13] = test: Test A postemergence; type: in vivo, Digitaria sanguinalis
Procedure, shortened: as §2

morningglory [14] = test: Test A preemergence; type: in vivo, Ipomoea spp.
Procedure, shortened: as §2

rice = test: Test B flooded paddy test; type: in vivo, Oryza sativa; details: Flood, 250 g ai/ha; 0 to 100 scale where 0 is no effect and 100 is complete control
Procedure, shortened: as §1

barnyardgrass [15] = test: Test A postemergence; type: in vivo, Echinochloa crus-galli
Procedure, shortened: as §2

corn [16] = test: Test A postemergence; type: in vivo, Zea mays
Procedure, shortened: as §2

Heteranthera limosa = test: Test B flooded paddy test; type: in vivo; details: Flood, 250 g ai/ha; 0 to 100 scale where 0 is no effect and 100 is complete control
Procedure, shortened: as §1

wheat [17] = test: Test A preemergence; type: in vivo, Triticum aestivum
Procedure, shortened: as §2

[18] = 500 g ai/ha, 0 to 100 scale where 0 is no effect and 100 is complete control
[19] = 125 g ai/ha, 0 to 100 scale where 0 is no effect and 100 is complete control
[20] = 500 g ai/ha, 0 to 100 scale, 0 no effect, 100 complete control, approx. 10 days
[21] = 500 g ai/ha, 0 to 100 scale, 0 no effect, 100 complete control

Compound: COC(=O)c1cccc(Oc2ncc(Cl)cn2)c1-n1cc(Br)cn1 [Compound 211]
- Plant response rating, Barnyardgrass (barnyardgrass [1]): 0
- Crabgrass, Large plant response rating (0 to 100 scale) (large (Lg) crabgrass [2]; 125 g ai/ha): 80
- Crabgrass, Large plant response rating (large (Lg) crabgrass [2]; [18]): 100
- Corn plant response rating (0 to 100 scale) (corn [3]; 125 g ai/ha): 0
- Corn plant response rating (corn [3]; [18]): 0
- Wheat plant response rating (wheat [4]; [19]): 0
- Plant response rating, Wheat (wheat [4]; [18]): 0
- Morningglory plant response rating (morningglory [5]; [19]): 90
- Plant response rating, Morningglory (morningglory [5]; [18]): 100
- Barnyardgrass plant response rating (0 to 100 scale, 0 is no effect, 100 is complete control) (barnyardgrass [6]; 125 g ai/ha): 0
- Barnyardgrass plant response rating (barnyardgrass [6]; [18]): 60
- Foxtail, Giant plant response rating (0 to 100 scale) (giant foxtail [7]; 125 g ai/ha): 100
- Foxtail, Giant plant response rating (giant foxtail [7]; [18]): 100
- Pigweed plant response rating (pigweed [8]; [19]): 90
- Plant response rating, Pigweed (pigweed [8]; [18]): 100
- Foxtail, Giant plant response rating (giant foxtail [9]; [19]): 30
- Plant response rating, Foxtail, Giant (giant foxtail [9]; [18]): 60
- Velvetleaf plant response rating (0 to 100 scale) (velvetleaf [10]; 125 g ai/ha): 60
- Velvetleaf plant response rating (velvetleaf [10]; [18]): 90
- Plant response rating, Sedge, Umbrella (sedge, umbrella): 0
- Pigweed plant response rating (0 to 100 scale) (pigweed [11]; 125 g ai/ha): 90
- Pigweed plant response rating (pigweed [11]; [18]): 100
- Velvetleaf plant response rating (velvetleaf [12]; [19]): 50
- Plant response rating, Velvetleaf (velvetleaf [12]; [18]): 90
- Crabgrass, Large plant response rating (large (Lg) crabgrass [13]; [19]): 10
- Plant response rating, Crabgrass, Large (large (Lg) crabgrass [13]; [18]): 50
- Morningglory plant response rating (0 to 100 scale) (morningglory [14]; 125 g ai/ha): 20
- Morningglory plant response rating (morningglory [14]; [18]): 70
- Plant response rating, Rice (rice): 0
- Barnyardgrass plant response rating (barnyardgrass [15]; [19]): 10
- Plant response rating, Barnyardgrass (barnyardgrass [15]; [18]): 50
- Corn plant response rating (corn [16]; [19]): 0
- Plant response rating, Corn (corn [16]; [18]): 0
- Plant response rating, Ducksalad (Heteranthera limosa): 0
- Wheat plant response rating (0 to 100 scale) (wheat [17]; 125 g ai/ha): 0
- Wheat plant response rating (wheat [17]; [18]): 0

Compound: Cc1cnc(Oc2ccccc2-n2cc(Br)cn2)nc1 [Compound 9]
- Plant response rating, Barnyardgrass (barnyardgrass [1]): 0
- Crabgrass, Large plant response rating (large (Lg) crabgrass [2]; [19]): 90
- Crabgrass, Large plant response rating (large (Lg) crabgrass [2]; [20]): 100
- Corn plant response rating (corn [3]; [19]): 0
- Corn plant response rating (corn [3]; [20]): 20
- Plant response rating, Wheat (wheat [4]; [19]): 0
- Plant response rating, Wheat (wheat [4]; [21]): 30
- Plant response rating, Morningglory (morningglory [5]; [19]): 20
- Plant response rating, Morningglory (morningglory [5]; [21]): 30
- Barnyardgrass plant response rating (barnyardgrass [6]; [19]): 30
- Barnyardgrass plant response rating (barnyardgrass [6]; [20]): 100
- Foxtail, Giant plant response rating (giant foxtail [7]; [19]): 80
- Foxtail, Giant plant response rating (giant foxtail [7]; [20]): 90
- Plant response rating, Pigweed (pigweed [8]; [19]): 80
- Plant response rating, Pigweed (pigweed [8]; [21]): 90
- Plant response rating, Foxtail, Giant (giant foxtail [9]; [19]): 30
- Plant response rating, Foxtail, Giant (giant foxtail [9]; [21]): 90
- Velvetleaf plant response rating (velvetleaf [10]; [19]): 80
- Velvetleaf plant response rating (velvetleaf [10]; [20]): 100
- Plant response rating, Sedge, Umbrella (sedge, umbrella): 60
- Pigweed plant response rating (pigweed [11]; [19]): 100
- Pigweed plant response rating (pigweed [11]; [20]): 100
- Plant response rating, Velvetleaf (velvetleaf [12]; [19]): 100
- Plant response rating, Velvetleaf (velvetleaf [12]; [21]): 100
- Plant response rating, Crabgrass, Large (large (Lg) crabgrass [13]; [19]): 30
- Plant response rating, Crabgrass, Large (large (Lg) crabgrass [13]; [21]): 80
- Morningglory plant response rating (morningglory [14]; [19]): 0
- Morningglory plant response rating (morningglory [14]; [20]): 0
- Plant response rating, Rice (rice): 0
- Plant response rating, Barnyardgrass (barnyardgrass [15]; [19]): 30
- Plant response rating, Barnyardgrass (barnyardgrass [15]; [21]): 90
- Plant response rating, Corn (corn [16]; [19]): 20
- Plant response rating, Corn (corn [16]; [21]): 50
- Plant response rating, Ducksalad (Heteranthera limosa): 80
- Wheat plant response rating (wheat [17]; [19]): 0
- Wheat plant response rating (wheat [17]; [20]): 0

Compound: Clc1ccc(-n2cccn2)c(Oc2ncc(Br)cn2)c1 [Compound 50]
- Plant response rating, Barnyardgrass (barnyardgrass [1]): 0
- Plant response rating, Crabgrass, Large (large (Lg) crabgrass [2]; [19]): 0
- Crabgrass, Large plant response rating (large (Lg) crabgrass [2]; [20]): 40
- Plant response rating, Corn (corn [3]; [19]): 0
- Corn plant response rating (corn [3]; [20]): 0
- Plant response rating, Wheat (wheat [4]; [19]): 0
- Plant response rating, Wheat (wheat [4]; [21]): 0
- Plant response rating, Morningglory (morningglory [5]; [19]): 20
- Plant response rating, Morningglory (morningglory [5]; [21]): 30
- Plant response rating, Barnyardgrass (barnyardgrass [6]; [19]): 0
- Barnyardgrass plant response rating (barnyardgrass [6]; [20]): 0
- Plant response rating, Foxtail, Giant (giant foxtail [7]; [19]): 0
- Foxtail, Giant plant response rating (giant foxtail [7]; [20]): 0
- Plant response rating, Pigweed (pigweed [8]; [19]): 20
- Plant response rating, Pigweed (pigweed [8]; [21]): 30
- Plant response rating, Foxtail, Giant (giant foxtail [9]; [19]): 0
- Plant response rating, Foxtail, Giant (giant foxtail [9]; [21]): 0
- Plant response rating, Velvetleaf (velvetleaf [10]; [19]): 0
- Velvetleaf plant response rating (velvetleaf [10]; [20]): 0
- Plant response rating, Sedge, Umbrella (sedge, umbrella): 0
- Plant response rating, Pigweed (pigweed [11]; [19]): 0
- Pigweed plant response rating (pigweed [11]; [20]): 0
- Plant response rating, Velvetleaf (velvetleaf [12]; [19]): 0
- Plant response rating, Velvetleaf (velvetleaf [12]; [21]): 10
- Plant response rating, Crabgrass, Large (large (Lg) crabgrass [13]; [19]): 0
- Plant response rating, Crabgrass, Large (large (Lg) crabgrass [13]; [21]): 10
- Plant response rating, Morningglory (morningglory [14]; [19]): 0
- Morningglory plant response rating (morningglory [14]; [20]): 0
- Plant response rating, Rice (rice): 0
- Plant response rating, Barnyardgrass (barnyardgrass [15]; [19]): 0
- Plant response rating, Barnyardgrass (barnyardgrass [15]; [21]): 10
- Plant response rating, Corn (corn [16]; [19]): 0
- Plant response rating, Corn (corn [16]; [21]): 0
- Plant response rating, Ducksalad (Heteranthera limosa): 0
- Plant response rating, Wheat (wheat [17]; [19]): 0
- Wheat plant response rating (wheat [17]; [20]): 0

From US9695155B2, “Herbicidal substituted pyrimidinyloxy benzene compounds” (E. I. DU PONT DE NEMOURS AND COMPANY, priority 2013, dated 2017)
